Results on two molecules are retold here after patent US12139458B2, “(2,5-dioxopyrrolidin-1-yl)(phenyl)-acetamide derivatives and their use in the treatment of neurological diseases” (UNIWERSYTET JAGIELLONSKI, priority 2019, dated 2024).

The structures appear in SMILES notation.

Assay type in all cases: in vivo
Series [1] has as its system male Swiss albino mice (CD-1). Briefly: Subcutaneous pentylenetetrazole seizure test (scPTZ). Conditions: 0.5 h, mice. The procedure, abridged: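 Compounds given i.p. in 1% aqueous Tween 30 min before s.c. PTZ at 100 mg/kg. Mice observed 30 min for clonic seizures (whole-body clonus ≥3 s with loss of righting reflex); absence counted as protection. ED50 from 3-4 groups of 6 mice; screening in groups of 4.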

The subject of series [2] is male Swiss albino mice (CD-1). Kind of series: Maximal electroshock seizure test (MES). Conditions: 0.5 h, mice. The procedure, abridged: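 Male CD-1 mice (18–26 g) received compound i.p. in 1% aqueous Tween 30 min before a 0.2 s, 500 V, 25 mA auricular electroshock.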
Background: In the maximal electroshock model the usual endpoint is tonic extension of the hind limbs.

Series [3] relates to male Swiss albino mice (CD-1). Kind of series: Psychomotor seizure test 6 Hz (32 mA). Conditions: 0.5 h, mice; for ED50 6 Hz (32 mA): i.p. The gist of the method:
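Compounds given i.p. in 1% aqueous Tween 30 min before a 3 s ocular stimulus (32 mA and/or 44 mA, 6 pulses/s) after lidocaine; mice normal within 10 s counted protected. ED50 from 3-4 groups of 6 mice; screening on groups of 4.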

Series [4] concerns male Swiss albino mice (CD-1). Kind of series: Psychomotor seizure test 6 Hz (44 mA). The conditions noted are these: 0.5 h, mice. The procedure: (§1) All procedures were carried out in accordance with applicable Polish and international guidelines on the ethics of animal testing, after obtaining appropriate institutional approval. The substances were administered intraperitoneally (i.p.), in 1% aqueous solution of Tween, as single injections with a volume of 10 ml/kg, 30 minutes before the given test. Screening was performed on groups consisted of 4 mice. […] All tests were carried out based on the procedures described in the specialist literature.
In the 6 Hz test, seizures were induced by an electric stimulus of 32 mA and/or 44 mA and a frequency of 6 pulses per second. […] Before starting the test, the eye surface was gently moistened with a solution of local anesthetic (1% lidocaine solution). The study was conducted 30 minutes after intraperitoneal administration of the compounds at various doses. An electrical pulse was delivered continuously for a period of 3 seconds, followed by observation of the animal for a period of 10 seconds. During this time, immobility or stun associated with rearing, forelimb clonus, twitching of the vibrissae and Straub's tail were observed. These symptoms persist throughout the observation period, indicating the occurrence of psychomotor seizures in mice.
(§2) To perform a statistical evaluation of the results, one-way ANOVA variance analysis and Dunnett's post hoc test (multiple comparison test) were used. The value at the significance level p<0.05 was considered statistically significant.

Series [5] relates to male Swiss albino mice (CD-1). Kind of series: Rotarod test (motor coordination). Conditions: i.p., 0.5 h. The procedure: as §1
Mice were trained the day before the actual experiment. They were placed individually on a 2 cm diameter rod rotating at 10 revolutions per minute (rpm). During each training session, the animals remained on the rod for 3 minutes. The experiment was carried out 30 minutes after administration of the compounds. Motor coordination was tested at the speed of the rotating bar: 10 rpm during 60 seconds. Motor impairments were defined as the inability to remain on the rotating rod for 1 min.
as §2
(Falling from the rotarod earlier than controls is read as motor impairment.)

In series [6] the test system is male white Swiss mice (CD-1). Kind of series: Capsaicin-induced pain model. Conditions: 200 mg/kg i.p. On the procedure:
(§3) The tests were carried out using male white Swiss mice (CD-1) weighing 18-25 g. All procedures were carried out in accordance with Polish and international guidelines on ethics of animal testing, after obtaining appropriate institutional approval. The study group consisted of 8-10 animals. The tested and reference substances were administered intraperitoneally 30 minutes before given test as suspension in 1% aqueous solution of Tween. All tests/models were carried out based on the procedures described in the specialist literature: the formalin test (Beirith, A.; Santos, A. R.; Calixto, J. B.; Rodrigues, A. L.; Creczynski-Pasa, T. B. Eur. J. Pharmacol. 1998, 345, 233-245), the model of capsaicin-induced pain (Mogilski, S.; Kubacka, M.; Redzicka, A.; Kazek, G.; Dudek, M.; Malinka, W.; Filipek, B. Pharmacol. Biochem. Behav. 2015, 133, 99-110), the model of oxaliplatin-induced neuropathic pain—von Frey test (Sałat, K.; Cios, A.; Wyska, E.; Satat, R.; Mogilski, S.; Filipek, B.; Wigȩkowski, K.; Malawska, B. Pharmacol. Biochem. Behav. 2014, 122, 173-181).
This test assesses the time of licking and/or biting the hind paw into which mice were injected subplantarly with capsaicin in an amount of 1.6 μg, dissolved in 20 μl of a mixture containing 0.9% saline and ethanol (5% of the final volume). Observation was carried out […] after capsaicin administration. Test compounds were administered intraperitoneally 30 minutes before administration of capsaicin. Inhibition of nociceptive reaction—shortening the time of licking and biting the paw was the measure of antinociceptive activity of the compound tested.
Valproic acid (VPA) was the reference compound in this test. […] Compound 6 was administered at 20 mg/kg, 30 mg/kg and 40 mg/kg. Test compounds were administered as a suspension in 1.0% Tween 80 solution. The control group consisted of mice treated with vehicle alone (1% Tween 80 solution). The nociceptive reaction time in this group was 43.29±3.21 seconds.

Series [7] has as its system male white Swiss mice (CD-1). Briefly: Formalin test (analgesic activity). On the procedure: as §3
The pain was induced by the subplantar injection of 20 μL of 2.5% formalin solution into the mice right hind paw. The animals were placed in separate, transparent observation chambers for a period of 30 minutes. The measured value was the total licking and biting time of the paw to which the formalin solution was injected. The nociceptive reaction time was calculated for the first 5 minutes after formalin injection (first phase of the test—acute pain) and in the 15-20, 20-25 and 25-30 minutes time intervals after its administration (second phase of the test—inflammatory pain). The observed inhibition of nociceptive reaction—reduction of paw licking and biting time, was interpreted as the analgesic effect of the compound tested. Based on the results obtained, the ED50 dose was calculated (dose that reduces the nociceptive reaction time by 50%). […] Compound 6 was administered at doses of 10 mg/kg, 20 mg/kg and 30 mg/kg.

Series [8] relates to male white Swiss mice (CD-1). Briefly: Oxaliplatin-induced neuropathic pain, von Frey test. Conditions: baseline 2.62±0.06 g, after OXPT 1.78±0.04 g. On the procedure:
as §3
Oxaliplatin (OXPT) was dissolved in a 5% glucose solution, followed by intraperitoneal administration to mice. A single dose of 10 mg/kg was used. Tactile and thermal (sensation of low temperature) allodynia associated with oxaliplatin-induced neuropathy are characterized by two phases. The early phase is acute and develops soon after administration of the OXPT, while the symptoms of the later (chronic) phase (associated with neurons damage), develops after a few days. Behavioral tests in mice with OXPT-induced neuropathy were carried out 7 days after its administration, i.e. in the late phase of neuropathy.
The influence of compounds tested on tactile allodynia was determined in the von Frey test. The animals were placed individually in cages with a reticulated bottom, 60 minutes before the beginning of the experiment, in order to adapt to the new environment. An electronic Von Frey apparatus (Electronic Von Frey, Bioseb, France) was used to assess the pain threshold for mechanical stimuli. The von Frey's fiber was applied to the underside of the right mouse paw with increasing pressure. […] The measurement was performed 3 times for each mouse, with at least 30 seconds between the measurements, then the results obtained were averaged. The entire study was performed 3 times: before OXPT administration to determine the baseline pain threshold; 7 days after administration of OXPT, and before administration of test compounds, to assess developing neuropathy by setting a new pain threshold; 30 minutes after administration of the compounds to determine their influence developed neuropathy.
Compound 6 was administered at doses of 10, 20 and 30 mg/kg.

Broadly, the TD50 is the dose at which the toxic effect under study appears in half of the subjects. A high value points to lower toxicity. For the molecule `O=C(C(c1ccccc1)N1C(=O)CCC1=O)N1CCN(c2cccc(SC(F)(F)F)c2)CC1` (stereo not drawn) [Compound 12], in series [1] (i.p.), the “ED50 scPTZ” value was more than 100 mg/kg. Besides, in series [1] (screening, 100 mg/kg i.p.), the “scPTZ: number of mice protected/number of mice tested” value is given as 4/4. Besides, the “ED50 MES” value in series [2] (i.p.) is listed as 36.2 mg/kg. In addition, the “MES: number of mice protected/number of mice tested” value in series [2] (screening, 100 mg/kg i.p.) is 4/4. Moreover, the “ED50 6 Hz (32 mA)” value in series [3] turned out to be 15.8 mg/kg. The “6 Hz (32 mA): number of mice protected/number of mice tested” value in series [3] (screening, 100 mg/kg i.p.) is listed as 4/4. The “ED50 6 Hz (44 mA)” value in series [4] (i.p.) was determined as 57.9 mg/kg. Further, the “6 Hz (44 mA): number of mice protected/number of mice tested” value in series [4] (screening, 100 mg/kg i.p.) was “¾”. Further, the TD50 in series [5] turned out to be 150.0 mg/kg.

As a reminder, the ED50 is the dose that gives a 50% effect, or the effect in half of the subjects. Regarding `CCCC(CCC)C(=O)O` [VPA, valproic acid, reference compound], the “analgesic activity, capsaicin test” value in series [6] is 42.25%. Further, in series [6] (control 43.29±3.21 seconds), the “nociceptive reaction time, capsaicin test” value is 25.00 ± 4.57 s. The ED50 in series [3] (Mus musculus, ip) stood at 131 mg/kg; in series [7] (Mus musculus, ip, phase II (inflammatory pain, 15-30 min), i.p., mice, read-out: ED50 in the second phase of the formalin test), 133 mg/kg. Moreover, the “ED50 6 Hz (32 mA)” value in series [3] turned out to be 130.6 mg/kg. The “analgesic activity in the first phase of the formalin test” value in series [7] (phase I, 100, 150 and 200 mg/kg i.p.) is reported as “no analgesic activity”. Moreover, the “pain threshold, von Frey test” value in series [8] (50 mg/kg i.p.) is 2.75 ± 0.06 g; in series [8] (100 mg/kg i.p.), 3.18 ± 0.14 g; in series [8] (150 mg/kg i.p.) it was 3.97 ± 0.30 g.
